Results published in patent publication US4156724A, “N-acylamino-alpha-arylacetamido cephalosporins and antibacterial compositions and methods containing them” (Sumitomo Chemical Company, Limited, priority 1974, dated 1979).
≈ marks a conversion by molar mass, not a printed value.

Columns and labels:
Format in all cases: cell-based
Serratia No. 72 = test: Minimum Inhibitory Concentration, Serratia No. 72
Procedure: (§1) anti-microbial activity tests were carried out on the compounds obtained in the Examples.

[1] = system: Staphylococcus aureus FS 289; test: Minimum Inhibitory Concentration, Staphylococcus aureus FS 289; details: Staphylococcus aureus FS 289, strain resistant to penicillin; for MIC: FS289, read-out: Minimum Inhibitory Concentration
Procedure: as §1
*Staphylococcus aureus FS 289: strain resistant to penicillin

Proteus vulgaris HX 19 = test: Minimum Inhibitory Concentration, Proteus vulgaris HX 19; details: Proteus vulgaris HX 19; for MIC: HX19, read-out: Minimum Inhibitory Concentration
Procedure: as §1

[2] = system: Klebsiella pneumoniae 602; test: Minimum Inhibitory Concentration, Klebsiella pneumoniae 602; details: for MIC: Klebsiella pneumoniae, 602, Klebsiella pneumoniae 602, read-out: Minimum Inhibitory Concentration; for Minimum Inhibitory Concentration: Klebsiella pneumoniae 602
Procedure: as §1

Escherichia coli NIHJ = test: Minimum Inhibitory Concentration, Escherichia coli NIHJ; details: Escherichia coli NIHJ; for MIC: read-out: Minimum Inhibitory Concentration
Procedure: as §1

[3] = system: Staphylococcus aureus 209 P; test: Minimum Inhibitory Concentration, Staphylococcus aureus 209 P; details: Staphylococcus aureus 209 P; for MIC: read-out: Minimum Inhibitory Concentration
Procedure: as §1

[4] = system: Enterobacter aerogeneus No. 75; test: Minimum Inhibitory Concentration, Enterobacter aerogeneus No. 75; details: Enterobacter aerogeneus No. 75; for MIC: read-out: Minimum Inhibitory Concentration
Procedure: as §1

[5] = system: Pseudomonas aeruginosa 104; test: Minimum Inhibitory Concentration, Pseudomonas aeruginosa 104; details: Pseudomonas aeruginosa 104; for MIC: read-out: Minimum Inhibitory Concentration
Procedure: as §1

SMILES	MIC (Serratia No. 72) [µg/mL]	MIC [1] [µg/mL]	MIC (Proteus vulgaris HX 19) [µg/mL]	MIC [2] [µg/mL]	MIC (Escherichia coli NIHJ) [µg/mL]	MIC [3] [µg/mL]	MIC [4] [µg/mL]	MIC [5] [µg/mL]	Minimum Inhibitory Concentration (Serratia No. 72) [µg/mL]	Minimum Inhibitory Concentration [1] [µg/mL]	Minimum Inhibitory Concentration (Proteus vulgaris HX 19) [µg/mL]	Minimum Inhibitory Concentration [2] [µg/mL]	Minimum Inhibitory Concentration (Escherichia coli NIHJ) [µg/mL]	Minimum Inhibitory Concentration [3] [µg/mL]	Minimum Inhibitory Concentration [4] [µg/mL]	Minimum Inhibitory Concentration [5] [µg/mL]
Cc1nnc(SCC2=C(C(=O)O)N3C(=O)C(NC(=O)[C@H](NC(=O)c4cnc5cccnc5c4O)c4ccc(O)cc4)C3SC2)s1 (some centres unmarked) [Example 129]	12.5 (≈ 18.8 µM)	3.13 (≈ 4.7 µM)	0.1 (≈ 0.15 µM)	1.56 (≈ 2.34 µM)	1.56 (≈ 2.34 µM)	0.78 (≈ 1.17 µM)	3.13 (≈ 4.7 µM)	3.13 (≈ 4.7 µM)								
Cn1nnnc1SCC1=C(C(=O)O)N2C(=O)C(NC(=O)[C@H](NC(=O)c3cnc4nc(N5CCCC5)cnc4c3O)c3ccc(O)cc3)C2SC1 (some centres unmarked) [Example 147]	25 (≈ 34.7 µM)	12.5 (≈ 17.4 µM)	1.56 (≈ 2.17 µM)	3.13 (≈ 4.35 µM)	3.13 (≈ 4.35 µM)	1.56 (≈ 2.17 µM)	6.25 (≈ 8.68 µM)	3.13 (≈ 4.35 µM)								
NC(=O)Nc1cccc(C(NC(=O)c2cnccc2O)C(=O)NC2C(=O)N3C(C(=O)O)=C(CSc4nnc(CO)s4)CSC23)c1 (centres unmarked) [Example 45]	50 (≈ 74.3 µM)	6.25 (≈ 9.29 µM)	0.39 (≈ 0.58 µM)	3.13 (≈ 4.65 µM)	12.5 (≈ 18.6 µM)	0.39 (≈ 0.58 µM)	12.5 (≈ 18.6 µM)	12.5 (≈ 18.6 µM)								
Cn1nnc(SCC2=C(C(=O)O)N3C(=O)C(NC(=O)C(NC(=O)c4cnc5cccnc5c4O)c4ccc(N)cc4)C3SC2)n1 (centres unmarked) [Example 82]	12.5 (≈ 19.3 µM)	6.25 (≈ 9.63 µM)	0.1 (≈ 0.154 µM)	1.56 (≈ 2.4 µM)	3.13 (≈ 4.83 µM)	0.78 (≈ 1.2 µM)	3.13 (≈ 4.83 µM)	3.13 (≈ 4.83 µM)								
CN(C)c1ccc2ncc(C(=O)N[C@@H](C(=O)NC3C(=O)N4C(C(=O)O)=C(CSc5n[nH]c(=O)s5)CSC34)c3ccc(O)c(F)c3)c(O)c2n1 (some centres unmarked) [Example 151]	12.5 (≈ 17.2 µM)	6.25 (≈ 8.58 µM)	0.39 (≈ 0.535 µM)	1.56 (≈ 2.14 µM)	1.56 (≈ 2.14 µM)	0.78 (≈ 1.07 µM)	6.25 (≈ 8.58 µM)	6.25 (≈ 8.58 µM)								
Nc1cccc(C(NC(=O)c2cnccc2O)C(=O)NC2C(=O)N3C(C(=O)O)=C(CSc4nnc(CO)s4)CSC23)c1 (centres unmarked) [Example 69]	50 (≈ 79.4 µM)	6.25 (≈ 9.93 µM)	0.2 (≈ 0.318 µM)	6.25 (≈ 9.93 µM)	6.25 (≈ 9.93 µM)	0.39 (≈ 0.619 µM)	12.5 (≈ 19.9 µM)	6.25 (≈ 9.93 µM)								
Cn1nnnc1SCC1=C(C(=O)O)N2C(=O)C(NC(=O)C(NC(=O)c3cnc4cccnc4c3O)c3cccc(N)c3)C2SC1 (centres unmarked) [Example 68]	12.5 (≈ 19.3 µM)	3.13 (≈ 4.83 µM)	0.1 (≈ 0.154 µM)	3.13 (≈ 4.83 µM)	1.56 (≈ 2.4 µM)	0.78 (≈ 1.2 µM)	3.13 (≈ 4.83 µM)	3.13 (≈ 4.83 µM)								
Cc1nnc(SCC2=C(C(=O)O)N3C(=O)C(NC(=O)[C@H](NC(=O)c4ccnnc4O)c4ccc(O)cc4)C3SC2)s1 (some centres unmarked) [Example 127]	50 (≈ 81.2 µM)	6.25 (≈ 10.2 µM)	0.2 (≈ 0.325 µM)	6.25 (≈ 10.2 µM)	6.25 (≈ 10.2 µM)	0.39 (≈ 0.633 µM)	12.5 (≈ 20.3 µM)	6.25 (≈ 10.2 µM)								
CC(=O)OCC1=C(C(=O)[O-])N2C(=O)C(NC(=O)C(NC(=O)c3cnc4cncnc4c3O)c3ccc(O)cc3)C2SC1.[Na+] (centres unmarked) [Example 141]									50	6.25	0.78	6.25	6.25	0.78	12.5	6.25
CC(=O)OCC1=C(C(=O)O)N2C(=O)[C@@H](NC(=O)[C@H](NC(=O)c3cnc4cccnc4c3O)c3ccc(NC(N)=O)cc3)[C@H]2SC1 [Example 7]	50 (≈ 78.7 µM)	6.25 (≈ 9.83 µM)	0.78 (≈ 1.23 µM)	3.13 (≈ 4.92 µM)	3.13 (≈ 4.92 µM)	0.78 (≈ 1.23 µM)	6.25 (≈ 9.83 µM)	6.25 (≈ 9.83 µM)								
O=C(O)C1=C(CSc2nnc(CO)s2)CSC2C(NC(=O)C(NC(=O)c3cnc4cccnc4c3O)c3ccc(CO)cc3)C(=O)N12 (centres unmarked) [Example 103]	12.5 (≈ 18 µM)	6.25 (≈ 8.98 µM)	0.2 (≈ 0.287 µM)	3.13 (≈ 4.5 µM)	3.13 (≈ 4.5 µM)	1.56 (≈ 2.24 µM)	12.5 (≈ 18 µM)	6.25 (≈ 8.98 µM)								
CSc1ccc2ncc(C(=O)N[C@@H](C(=O)N[C@@H]3C(=O)N4C(C(=O)O)=C(COC(C)=O)CS[C@H]34)c3cccc(NC(N)=O)c3)c(O)c2n1 [Example 34]	50 (≈ 73.3 µM)	6.25 (≈ 9.17 µM)	0.78 (≈ 1.14 µM)	3.13 (≈ 4.59 µM)	3.13 (≈ 4.59 µM)	0.78 (≈ 1.14 µM)	12.5 (≈ 18.3 µM)	6.25 (≈ 9.17 µM)								
O=C(O)C1=C(CSc2ccc(O)nn2)CSC2C(NC(=O)C(NC(=O)c3cnccc3O)c3ccc(O)cc3)C(=O)N12 (centres unmarked) [Example 177]	100 (≈ 164 µM)	6.25 (≈ 10.2 µM)	0.2 (≈ 0.328 µM)	6.25 (≈ 10.2 µM)	6.25 (≈ 10.2 µM)	0.39 (≈ 0.639 µM)	12.5 (≈ 20.5 µM)	12.5 (≈ 20.5 µM)								
Cn1nnnc1SCC1=C(C(=O)O)N2C(=O)C(NC(=O)C(NC(=O)c3cnc4sccc4c3O)c3cccc(NC(N)=O)c3)C2SC1 (centres unmarked) [Example 43]	12.5 (≈ 17.9 µM)	6.25 (≈ 8.97 µM)	0.39 (≈ 0.56 µM)	3.13 (≈ 4.49 µM)	6.25 (≈ 8.97 µM)	0.78 (≈ 1.12 µM)	6.25 (≈ 8.97 µM)	6.25 (≈ 8.97 µM)								
CC(=O)OCC1=C(C(=O)O)N2C(=O)[C@@H](NC(=O)[C@H](NC(=O)c3cnccc3O)c3cccc(NC(N)=O)c3)[C@H]2SC1 [Example 2]	> 200	6.25 (≈ 10.7 µM)	0.39 (≈ 0.667 µM)	12.5 (≈ 21.4 µM)	12.5 (≈ 21.4 µM)	0.39 (≈ 0.667 µM)	25 (≈ 42.8 µM)	6.25 (≈ 10.7 µM)								
Cc1ccc2c(O)c(C(=O)N[C@@H](C(=O)N[C@@H]3C(=O)N4C(C(=O)O)=C(CSc5nnc(C)s5)CS[C@H]34)c3ccc(NC(N)=O)cc3)cnc2n1 [Example 25]	12.5 (≈ 17.3 µM)	6.25 (≈ 8.66 µM)	0.39 (≈ 0.54 µM)	3.13 (≈ 4.34 µM)	3.13 (≈ 4.34 µM)	1.56 (≈ 2.16 µM)	6.25 (≈ 8.66 µM)	3.13 (≈ 4.34 µM)								
Cc1nnc(SCC2=C(C(=O)O)N3C(=O)C(NC(=O)C(NC(=O)c4cnc5c(O)ccnc5c4O)c4cccc(N)c4)C3SC2)s1 (centres unmarked) [Example 76]	12.5 (≈ 18.4 µM)	6.25 (≈ 9.18 µM)	0.2 (≈ 0.294 µM)	3.13 (≈ 4.6 µM)	3.13 (≈ 4.6 µM)	0.78 (≈ 1.15 µM)	3.13 (≈ 4.6 µM)	3.13 (≈ 4.6 µM)								
Cc1nnc(SCC2=C(C(=O)O)N3C(=O)C(NC(=O)C(NC(=O)c4cnccc4O)c4ccc(O)c(O)c4)C3SC2)s1 (centres unmarked) [Example 183]	50 (≈ 79.3 µM)	6.25 (≈ 9.91 µM)	0.39 (≈ 0.618 µM)	12.5 (≈ 19.8 µM)	6.25 (≈ 9.91 µM)	0.78 (≈ 1.24 µM)	12.5 (≈ 19.8 µM)	6.25 (≈ 9.91 µM)								
COc1cc(C(NC(=O)c2cnc3cccnc3c2O)C(=O)NC2C(=O)N3C(C(=O)O)=C(CSc4nnc(CO)s4)CSC23)ccc1O (centres unmarked) [Example 157]	25 (≈ 35.1 µM)	12.5 (≈ 17.6 µM)	0.2 (≈ 0.281 µM)	3.13 (≈ 4.4 µM)	3.13 (≈ 4.4 µM)	1.56 (≈ 2.19 µM)	6.25 (≈ 8.78 µM)	6.25 (≈ 8.78 µM)								
O=C(O)C1=C(CSc2cnn[nH]2)CSC2C(NC(=O)C(NC(=O)c3cnc4cccnc4c3O)c3cccc(O)c3)C(=O)N12 (centres unmarked) [Example 169]	25 (≈ 39.4 µM)	6.25 (≈ 9.85 µM)	0.1 (≈ 0.158 µM)	1.56 (≈ 2.46 µM)	3.13 (≈ 4.93 µM)	0.78 (≈ 1.23 µM)	3.13 (≈ 4.93 µM)	3.13 (≈ 4.93 µM)								
CN(C)c1ccc2ncc(C(=O)NC(C(=O)NC3C(=O)N4C(C(=O)[O-])=C(CSc5nnnn5C)CSC34)c3ccc(NC(N)=O)cc3)c(O)c2n1.[Na+] (centres unmarked) [Example 29]									12.5	6.25	0.2	1.56	1.56	0.78	3.13	3.13
Cn1nnnc1SCC1=C(C(=O)O)N2C(=O)C(NC(=O)C(NC(=O)c3cnc4scnc4c3O)c3cccc(NC(N)=O)c3)C2SC1 (centres unmarked) [Example 44]	12.5 (≈ 17.9 µM)	6.25 (≈ 8.96 µM)	0.39 (≈ 0.559 µM)	3.13 (≈ 4.49 µM)	6.25 (≈ 8.96 µM)	0.78 (≈ 1.12 µM)	6.25 (≈ 8.96 µM)	6.25 (≈ 8.96 µM)								
Cc1ccc2c(O)c(C(=O)NC(C(=O)NC3C(=O)N4C(C(=O)O)=C(CSc5nnc(C)s5)CSC34)c3cccc(O)c3)cnc2n1 (centres unmarked) [Example 168]	50 (≈ 73.6 µM)	12.5 (≈ 18.4 µM)	0.78 (≈ 1.15 µM)	6.25 (≈ 9.19 µM)	12.5 (≈ 18.4 µM)	1.56 (≈ 2.29 µM)	25 (≈ 36.8 µM)	12.5 (≈ 18.4 µM)								
CC(=O)OCC1=C(C(=O)[O-])N2C(=O)C(NC(=O)C(NC(=O)c3cnc4ncncc4c3O)c3ccc(O)cc3)C2SC1.[Na+] (centres unmarked) [Example 139]									50	12.5	3.13	6.25	12.5	1.56	50	12.5
Cn1nnnc1SCC1=C(C(=O)O)N2C(=O)C(NC(=O)[C@H](NC(=O)c3cnc4cccnc4c3O)c3ccc(O)cc3)C2SC1 (some centres unmarked) [Example 131]	12.5 (≈ 19.2 µM)	3.13 (≈ 4.82 µM)	0.1 (≈ 0.154 µM)	0.78 (≈ 1.2 µM)	1.56 (≈ 2.4 µM)	0.78 (≈ 1.2 µM)	3.13 (≈ 4.82 µM)	3.13 (≈ 4.82 µM)								
